The text below walks through data of patent US8044057B2, “Methods for suppressing an immune response or treating a proliferative disorder” (The United States of America as represented by the …, priority 2003, dated 2011).

The subject of the test is PC-3 cells. The experiment in a line: PC-3 prostate adenocarcinoma tumor growth in nude mice. Type of test: in vivo, mouse. On the procedure:
FIG. 6A-6B are bar graphs showing that LY303511 inhibits the growth of prostate adenocarcinoma cells (PC-3) cells in nude mice. LY303511, 10 mg/kg/d was administered intraperitoneally to attenuate PC-3 tumor growth in nude mice. The degree of growth inhibition was proportional to the duration of treatment with LY303511. […] FIG. 6C is a graph of a Kaplan-Mieir survival analysis. The analysis includes the premise that an event happens when a tumor reaches 300 mm^3. The y-axis depicts the probability that tumor size is less than 300 mm^3.
The effect of LY303511 on tumor growth was assessed in vivo. Human prostate adenocarcinoma cells (PC-3 cells, ATCC No. CTL-1435) were culture in vitro 5 before harvesting and implantation. For each mouse, 1×10^6 cells in 20% Matrigel™ (matrix) were implanted by subcutaneous injection into the flank. Mice were subdivided into six groups of ten mice each. Treatment protocols were begun (Day 1) when tumors reached approximately 150 mm^3, and tumor volumes (=Caliper length×width^2/2) were measured for thirty days at the indicated time points. Data were expressed as the average tumor volume +/− SEM for each treatment group and time point. The data is shown both in FIG. 6A and 6B. (*p<0.05 by one way ANOVA for inter-group comparisons at each time point. FIG. 6C is a Kaplan-meier analysis, representing the probability that tumor volumes are less than 300 mm^3 at any given time point (p<0.001 by log-rank test for inter-group comparison).

As for `O=c1cc(N2CCNCC2)oc2c(-c3ccccc3)cccc12` [LY303511, 2-(4-piperazinyl)-8-phenyl-4H-1-benzopyran-4-one], the “degree of growth inhibition versus duration of treatment” value (10 mg/kg daily for 5, 10 or 20 days) is “direct proportional to the duration of treatment”. For the same compound, the “tumor growth inhibition, 20 day course versus ten day course” value (10 mg/kg daily, FIG. 6C) was “as effective at inhibiting tumor growth as a ten day course”. In addition, the PC-3 tumor growth result (10 mg/kg intraperitoneally daily) is recorded as “inhibited the growth of prostate adenocarcinoma cells”. In addition, the tumor burden result (LY303511 10 mg/kg daily, Doxorubicin 10 mg/kg once on Day 1) is reported as “decrease tumor burden”.
